Measured values taken from PubChem BioAssay AID1963843 (Molecular Pharmacology Branch, DTP, NCI, 2024).
pIC50: −log10 of the molar value.

Tested on: 616215-338-R-J1-PDC complex spheroid viability
Test: Anticancer human tumor 616215-338-R-J1-PDC patient-derived colon adenocarcinoma cell line growth inhibition [POLQ]
Conditions: for pIC50: curve of first compound; for viability, T/C: stronger effect = lower value; active = viability on the fitted dose curve at most 10% of control; inactive = the rest
In short: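 Growth inhibition in 3D: complex spheroids (tumor PDC, HUVEC, MSC) treated with POLQ inhibitor combinations; where Cmax unknown, highest tested concentration 10 microM, except SN-38 at 1 microM.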

[1] = second compound 0.0316 µM, first compound 0.0316 µM
[2] = second compound 0.0316 µM, first compound 0.1 µM
[3] = second compound 0.0316 µM, first compound 0.316 µM
[4] = second compound 0.0316 µM, first compound 1 µM
[5] = second compound 0.0316 µM, first compound 3.16 µM
[6] = second compound 0.0316 µM, first compound 10 µM
[7] = second compound 0.1 µM, first compound 0.0316 µM
[8] = second compound 0.1 µM, first compound 0.1 µM
[9] = second compound 0.1 µM, first compound 0.316 µM
[10] = second compound 0.1 µM, first compound 1 µM
[11] = second compound 0.1 µM, first compound 3.16 µM
[12] = second compound 0.1 µM, first compound 10 µM
[13] = second compound 0.316 µM, first compound 0.0316 µM
[14] = second compound 0.316 µM, first compound 0.1 µM
[15] = second compound 0.316 µM, first compound 0.316 µM
[16] = second compound 0.316 µM, first compound 1 µM
[17] = second compound 0.316 µM, first compound 3.16 µM
[18] = second compound 0.316 µM, first compound 10 µM
[19] = second compound 1 µM, first compound 0.0316 µM
[20] = second compound 1 µM, first compound 0.1 µM
[21] = second compound 1 µM, first compound 0.316 µM
[22] = second compound 1 µM, first compound 1 µM
[23] = second compound 1 µM, first compound 3.16 µM
[24] = second compound 1 µM, first compound 10 µM
[25] = second compound 3.16 µM, first compound 0.0316 µM
[26] = second compound 3.16 µM, first compound 0.1 µM
[27] = second compound 3.16 µM, first compound 0.316 µM
[28] = second compound 3.16 µM, first compound 1 µM
[29] = second compound 3.16 µM, first compound 3.16 µM
[30] = second compound 3.16 µM, first compound 10 µM
[31] = second compound 10 µM, first compound 0.0316 µM
[32] = second compound 10 µM, first compound 0.1 µM
[33] = second compound 10 µM, first compound 0.316 µM
[34] = second compound 10 µM, first compound 1 µM
[35] = second compound 10 µM, first compound 3.16 µM
[36] = second compound 10 µM, first compound 10 µM
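Also: spheroids exposed to compounds for one week before readout.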
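For viability, T/C in this document: percent viability relative to DMSO vehicle wells taken as 100%.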

C=CC(=O)N1CCN(c2nc(=O)n(-c3c(C)ccnc3C(C)C)c3nc(-c4c(O)cccc4F)c(F)cc23)C(C)C1 (stereo unspecified) + Cc1cccc(N(C)C(=O)C2C(O)CCN2c2nc(C)cc(C(F)(F)F)c2C#N)c1
inactive: viability, T/C [1] 102% | viability, T/C [2] 95.3% | viability, T/C [3] 95.8% | viability, T/C [4] 109% | viability, T/C [5] 100% | viability, T/C [6] 98.3% | viability, T/C [7] 95.6% | viability, T/C [8] 95.3% | viability, T/C [9] 88.2% | viability, T/C [10] 105% | viability, T/C [11] 104% | viability, T/C [12] 90.3% | viability, T/C [13] 93.8% | viability, T/C [14] 99.2% | viability, T/C [15] 99.6% | viability, T/C [16] 104% | viability, T/C [17] 108% | viability, T/C [18] 97% | viability, T/C [19] 96.7% | viability, T/C [20] 86% | viability, T/C [21] 88.1% | viability, T/C [22] 101% | viability, T/C [23] 105% | viability, T/C [24] 86.2% | viability, T/C [25] 96.6% | viability, T/C [26] 122% | viability, T/C [27] 103% | viability, T/C [28] 101% | viability, T/C [29] 97.6% | viability, T/C [30] 91.6% | viability, T/C [31] 105% | viability, T/C [32] 99.6% | viability, T/C [33] 90.9% | viability, T/C [34] 104% | viability, T/C [35] 95.3% | viability, T/C [36] 73%
< 5.00: pIC50 (second compound 0.0316 µM) | pIC50 (second compound 0.1 µM) | pIC50 (second compound 0.316 µM) | pIC50 (second compound 1 µM) | pIC50 (second compound 3.16 µM) | pIC50 (second compound 10 µM)

CC(C)n1c(=O)n(C)c2cnc3cc(F)c(-c4ccc(OCCCN5CCCCC5)nc4)cc3c21 + Cc1cccc(N(C)C(=O)C2C(O)CCN2c2nc(C)cc(C(F)(F)F)c2C#N)c1
inactive: viability, T/C [1] 95.4% | viability, T/C [2] 98.2% | viability, T/C [3] 99.1% | viability, T/C [4] 111% | viability, T/C [5] 108% | viability, T/C [6] 114% | viability, T/C [7] 109% | viability, T/C [8] 113% | viability, T/C [9] 106% | viability, T/C [10] 102% | viability, T/C [11] 105% | viability, T/C [12] 105% | viability, T/C [13] 102% | viability, T/C [14] 97.8% | viability, T/C [15] 94.5% | viability, T/C [16] 107% | viability, T/C [17] 117% | viability, T/C [18] 103% | viability, T/C [19] 101% | viability, T/C [20] 99.8% | viability, T/C [21] 102% | viability, T/C [22] 117% | viability, T/C [23] 114% | viability, T/C [24] 113% | viability, T/C [25] 105% | viability, T/C [26] 101% | viability, T/C [27] 108% | viability, T/C [28] 114% | viability, T/C [29] 108% | viability, T/C [30] 102% | viability, T/C [31] 108% | viability, T/C [32] 114% | viability, T/C [33] 105% | viability, T/C [34] 109% | viability, T/C [35] 108% | viability, T/C [36] 95.4%
< 5.00: pIC50 (second compound 0.0316 µM) | pIC50 (second compound 0.1 µM) | pIC50 (second compound 0.316 µM) | pIC50 (second compound 1 µM) | pIC50 (second compound 3.16 µM) | pIC50 (second compound 10 µM)

CC1COCCN1c1cc(-c2ccnn2C)c2ccnc(-c3ccn[nH]3)c2n1 (stereo unspecified) + Cc1cccc(N(C)C(=O)C2C(O)CCN2c2nc(C)cc(C(F)(F)F)c2C#N)c1
5.91: pIC50 (second compound 10 µM)
5.55: pIC50 (second compound 1 µM)
5.70: pIC50 (second compound 3.16 µM)
inactive: viability, T/C [1] 104% | viability, T/C [2] 110% | viability, T/C [3] 76.7% | viability, T/C [4] 66.2% | viability, T/C [5] 49.4% | viability, T/C [6] 50.6% | viability, T/C [7] 103% | viability, T/C [8] 100% | viability, T/C [9] 69.5% | viability, T/C [10] 61.8% | viability, T/C [11] 50.1% | viability, T/C [12] 50.5% | viability, T/C [13] 107% | viability, T/C [14] 91.1% | viability, T/C [15] 66.3% | viability, T/C [16] 57.4% | viability, T/C [17] 52.4% | viability, T/C [18] 53% | viability, T/C [19] 101% | viability, T/C [20] 91% | viability, T/C [21] 71.9% | viability, T/C [22] 57.1% | viability, T/C [23] 53% | viability, T/C [24] 40.8% | viability, T/C [25] 114% | viability, T/C [26] 95.2% | viability, T/C [27] 72.2% | viability, T/C [28] 54% | viability, T/C [29] 44.1% | viability, T/C [30] 47.9% | viability, T/C [31] 111% | viability, T/C [32] 90.6% | viability, T/C [33] 68% | viability, T/C [34] 49.2% | viability, T/C [35] 47.5% | viability, T/C [36] 36.8%
< 5.00: pIC50 (second compound 0.0316 µM) | pIC50 (second compound 0.1 µM) | pIC50 (second compound 0.316 µM)
